According to US12053470B2, “Pharmaceutical combination comprising an ALK inhibitor and a SHP2 inhibitor” (Novartis AG, priority 2017, dated 2024):

System: Ceritinib resistant MGH049 cells
Assay: Cell colony formation assay with ceritinib resistant MGH049 cells;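 also: tested compounds are SHP2 inhibitors given alone, colonies fixed and crystal violet stained, DMSO reference taken as the mean of six readings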
Format: cell-based, human
Settings: Homo sapiens, 168 h; compound of Table 1 (3 μM) alone, 7 days; normalized to DMSO without compound = 100; read-out: Normalized Crystal Violet abs. (590 nm) DMSO

Row | Compound | activity at 3 µM [%]
1 | CC1(N)CCN(c2cnc(Sc3cccc(NC(=O)c4c(O)nc5ccccn5c4=O)c3Cl)c(N)n2)CC1 [Compound No. 44, N-(3-((3-amino-5-(4-amino-4-methylpiperidin-1-yl)pyrazin-2-yl)thio)-2-chlorophenyl)-2-hydroxy-4-oxo-4H-pyrido[1,2-a]pyrimidine-3-carboxamide] | 37
2 | NCC1(c2ccccc2)CCN(c2cnc(-c3cccc(Cl)c3Cl)c(N)n2)CC1 [compound 2, 6-(4-(aminomethyl)-4-phenylpiperidin-1-yl)-3-(2,3-dichlorophenyl)pyrazin-2-amine] | 67
3 | Nc1nc(N2CCC3(CCC[C@H]3N)CC2)cnc1Sc1ccnc(N)c1Cl [compound 6, (R)-8-(6-amino-5-((2-amino-3-chloropyridin-4-yl)thio)pyrazin-2-yl)-8-azaspiro[4.5]decan-1-amine] | 44.5
4 | Nc1nc(N2CCC3(CC2)COC[C@H]3N)cnc1Sc1ccnc(N)c1Cl [compound 11, (S)-8-(6-amino-5-((2-amino-3-chloropyridin-4-yl)thio)pyrazin-2-yl)-2-oxa-8-azaspiro[4.5]decan-4-amine] | 58.9
5 | C[C@H]1C[C@@H](N)C2(CCN(c3cnc(Sc4ccnc(N)c4Cl)c(N)n3)CC2)C1 [compound 12, (1R,3R)-8-(6-amino-5-((2-amino-3-chloropyridin-4-yl)thio)pyrazin-2-yl)-3-methyl-8-azaspiro[4.5]decan-1-amine] | 30.1
6 | Nc1nc(N2CCC3(CC2)C[C@H](O)C[C@H]3N)cnc1Sc1ccnc(Cl)c1Cl [compound 13, (2S,4R)-4-amino-8-(6-amino-5-((2,3-dichloropyridin-4-yl)thio)pyrazin-2-yl)-8-azaspiro[4.5]decan-2-ol] | 42.8
7 | Nc1nc(N2CCC3(CC2)C[C@@H](O)C[C@H]3N)cnc1Sc1ccnc(Cl)c1Cl [compound 14, (2R,4R)-4-amino-8-(6-amino-5-((2,3-dichloropyridin-4-yl)thio)pyrazin-2-yl)-8-azaspiro[4.5]decan-2-ol] | 51.2
8 | C[C@@H]1OCC2(CCN(c3cnc(Sc4ccnc(N)c4Cl)c(N)n3)CC2)[C@@H]1N [compound 16, (3S,4S)-8-(6-amino-5-((2-amino-3-chloropyridin-4-yl)thio)pyrazin-2-yl)-3-methyl-2-oxa-8-azaspiro[4.5]decan-4-amine] | 34.4
9 | C[C@@H]1OCC2(CCN(c3nc(N)c(Sc4cccnc4C(F)(F)F)c(=O)n3C)CC2)[C@@H]1N [compound 25, 6-amino-2-((3S,4S)-4-amino-3-methyl-2-oxa-8-azaspiro[4.5]decan-8-yl)-3-methyl-5-((2-(trifluoromethyl)pyridin-3-yl)thio)pyrimidin-4(3H)-one] | 52.5
10 | C[C@@H]1OCC2(CCN(c3nc(N)c(Sc4cccc(Cl)c4Cl)c(=O)n3C)CC2)[C@@H]1N [compound 27, 6-amino-2-((3S,4S)-4-amino-3-methyl-2-oxa-8-azaspiro[4.5]decan-8-yl)-5-((2,3-dichlorophenyl)thio)-3-methylpyrimidin-4(3H)-one] | 37.8
11 | C[C@H]1C[C@@H](N)C2(CCN(c3nc(N)c(Sc4ccncc4C(F)(F)F)c(=O)n3C)CC2)C1 [compound 28, 6-amino-2-((1R,3R)-1-amino-3-methyl-8-azaspiro[4.5]decan-8-yl)-3-methyl-5-((3-(trifluoromethyl)pyridin-4-yl)thio)pyrimidin-4(3H)-one] | 28.1
12 | C[C@H]1C[C@@H](N)C2(CCN(c3nc(N)c(-c4cccc(Cl)c4Cl)c(=O)n3C)CC2)C1 [compound 29, 6-amino-2-((1R,3R)-1-amino-3-methyl-8-azaspiro[4.5]decan-8-yl)-5-(2,3-dichlorophenyl)-3-methylpyrimidin-4(3H)-one] | 25.1
13 | COc1cccc(Sc2c(N)nc(N3CCC4(CC3)CO[C@@H](C)[C@H]4N)n(C)c2=O)c1Cl [compound 30, 6-amino-2-((3S,4S)-4-amino-3-methyl-2-oxa-8-azaspiro[4.5]decan-8-yl)-5-((2-chloro-3-methoxyphenyl)thio)-3-methylpyrimidin-4(3H)-one] | 39.4
14 | CC[C@@H]1OCC2(CCN(c3nc(N)c(Sc4cccnc4C(F)(F)F)c(=O)n3C)CC2)[C@@H]1N [compound 31, 6-amino-2-((3S,4S)-4-amino-3-ethyl-2-oxa-8-azaspiro[4.5]decan-8-yl)-3-methyl-5-((2-(trifluoromethyl)pyridin-3-yl)thio)pyrimidin-4(3H)-one] | 36.4
15 | C[C@@H]1OCC2(CCN(c3nc(N)c(Sc4cccc(N)c4C(F)(F)F)c(=O)n3C)CC2)[C@@H]1N [compound 32, 6-amino-5-((3-amino-2-(trifluoromethyl)phenyl)thio)-2-((3S,4S)-4-amino-3-methyl-2-oxa-8-azaspiro[4.5]decan-8-yl)-3-methylpyrimidin-4(3H)-one] | 58.2
16 | Cn1c(N2CCC3(CC2)CC(F)(F)C[C@H]3N)nc(N)c(Sc2ccnc(N)c2Cl)c1=O [compound 33, (R)-6-amino-2-(1-amino-3,3-difluoro-8-azaspiro[4.5]decan-8-yl)-5-((2-amino-3-chloropyridin-4-yl)thio)-3-methylpyrimidin-4(3H)-one] | 73.3
17 | C[C@@H]1OCC2(CCN(c3nc(N)c(Sc4ccncc4C(F)(F)F)c(=O)n3C)CC2)[C@@H]1N [compound 34, 6-amino-2-((3S,4S)-4-amino-3-methyl-2-oxa-8-azaspiro[4.5]decan-8-yl)-3-methyl-5-((3-(trifluoromethyl)pyridin-4-yl)thio)pyrimidin-4(3H)-one] | 43.6
18 | C[C@H]1C[C@@H](N)C2(CCN(c3nc(N)c(-c4ccc(Cl)cc4)c(=O)n3C)CC2)C1 [compound 35, 6-amino-2-((1R,3R)-1-amino-3-methyl-8-azaspiro[4.5]decan-8-yl)-5-(4-chlorophenyl)-3-methylpyrimidin-4(3H)-one] | 32.2
19 | C[C@H]1C[C@@H](N)C2(CCN(c3nc(N)c(-c4ccccc4)c(=O)n3C)CC2)C1 [compound 36, 6-amino-2-((1R,3R)-1-amino-3-methyl-8-azaspiro[4.5]decan-8-yl)-3-methyl-5-phenylpyrimidin-4(3H)-one] | 23.8
20 | CC1(CN)CCN(c2nc3[nH]cc(-c4cccc(Cl)c4Cl)c3c(=O)[nH]2)CC1 [compound 38, 2-(4-(aminomethyl)-4-methylpiperidin-1-yl)-5-(2,3-dichlorophenyl)-3,7-dihydro-4H-pyrrolo[2,3-d]pyrimidin-4-one] | 83.9
21 | C[C@@H]1OCC2(CCN(c3cnc4c(-c5ccnc(Cl)c5Cl)n[nH]c4n3)CC2)[C@@H]1N [compound 39, (3S,4S)-8-(3-(2,3-dichloropyridin-4-yl)-1H-pyrazolo[3,4-b]pyrazin-6-yl)-3-methyl-2-oxa-8-azaspiro[4.5]decan-4-amine] | 97.9
22 | Cc1nc(N)ccc1-c1[nH]nc2nc(N3CCC4(CC3)C[C@@H](C)C[C@H]4N)n(C)c(=O)c12 [compound 40, 3-(6-amino-2-methylpyridin-3-yl)-6-((1R,3R)-1-amino-3-methyl-8-azaspiro[4.5]decan-8-yl)-5-methyl-2,5-dihydro-4H-pyrazolo[3,4-d]pyrimidin-4-one] | 22.4
23 | Cc1nc(N)ccc1-c1[nH]nc2nc(N3CCC4(CC3)CC(F)(F)C[C@H]4N)n(C)c(=O)c12 [compound 41, (R)-3-(6-amino-2-methylpyridin-3-yl)-6-(1-amino-3,3-difluoro-8-azaspiro[4.5]decan-8-yl)-5-methyl-2,5-dihydro-4H-pyrazolo[3,4-d]pyrimidin-4-one] | 25.3
24 | COc1nccc(-c2c[nH]c3nc(N4CCC5(CC4)CO[C@@H](C)[C@H]5N)n(C)c(=O)c23)c1Cl [compound 43, 2-((3S,4S)-4-amino-3-methyl-2-oxa-8-azaspiro[4.5]decan-8-yl)-5-(3-chloro-2-methoxypyridin-4-yl)-3-methyl-3,7-dihydro-4H-pyrrolo[2,3-d]pyrimidin-4-one] | 95.6
25 | C[C@@H]1OCC2(CCN(c3cnc(Sc4cccc(NC(=O)c5c(O)nc6n(c5=O)CCCC6)c4Cl)c(N)n3)CC2)[C@@H]1N [compound 45, N-(3-((3-amino-5-((3S,4S)-4-amino-3-methyl-2-oxa-8-azaspiro[4.5]decan-8-yl)pyrazin-2-yl)thio)-2-chlorophenyl)-2-hydroxy-4-oxo-6,7,8,9-tetrahydro-4H-pyrido[1,2-a]pyrimidine-3-carboxamide] | 12.1
26 | Nc1nc(N2CCC3(CCC[C@H]3N)CC2)cnc1Sc1cccc(NC(=O)c2c(O)nc3n(c2=O)CCCC3)c1Cl [compound 47, (R)-N-(3-((3-amino-5-(1-amino-8-azaspiro[4.5]decan-8-yl)pyrazin-2-yl)thio)-2-chlorophenyl)-2-hydroxy-4-oxo-6,7,8,9-tetrahydro-4H-pyrido[1,2-a]pyrimidine-3-carboxamide] | 14.8
27 | CC1(CN)CCN(c2cnc(Sc3cccc(NC(=O)c4c(O)nc5n(c4=O)CCCC5)c3Cl)c(N)n2)CC1 [compound 48, N-(3-((3-amino-5-(4-(aminomethyl)-4-methylpiperidin-1-yl)pyrazin-2-yl)thio)-2-chlorophenyl)-2-hydroxy-4-oxo-6,7,8,9-tetrahydro-4H-pyrido[1,2-a]pyrimidine-3-carboxamide] | 52.3
28 | Nc1nc(N2CCC3(CC2)CC(F)(F)C[C@H]3N)cnc1Sc1cccc(NC(=O)c2c(O)nc3n(c2=O)CCCC3)c1Cl [compound 49, (R)-N-(3-((3-amino-5-(1-amino-3,3-difluoro-8-azaspiro[4.5]decan-8-yl)pyrazin-2-yl)thio)-2-chlorophenyl)-2-hydroxy-4-oxo-6,7,8,9-tetrahydro-4H-pyrido[1,2-a]pyrimidine-3-carboxamide] | 26.5
29 | CC1(CN)CCN(c2cnc(Sc3cccc(NC(=O)c4c(O)nc5ccccn5c4=O)c3Cl)c(N)n2)CC1 [compound 50, N-(3-((3-amino-5-(4-(aminomethyl)-4-methylpiperidin-1-yl)pyrazin-2-yl)thio)-2-chlorophenyl)-2-hydroxy-4-oxo-4H-pyrido[1,2-a]pyrimidine-3-carboxamide] | 98.9
